Laboratory results reported in patent publication US20160311886A1, “Constructs Binding to Phosphatidylserine and Their Use in Disease Treatment and Imaging” (Board of Regents, The University of Texas System, priority 2005, published 2016).
Read-outs that look alike come from different tables or passages of the source.

Tests used:
[1] = tested on: IL-1α-stimulated bEnd.3 cells; test: Coaguligand-induced Factor Xa formation, chromogenic assay; type: cell-based, mouse; conditions: 10 μg per ml Annexin V
Procedure: The ability of Annexin V to affect Factor Xa formation induced by coaguligand was determined by a chromogenic assay. IL-1α-stimulated bEnd.3 cells were incubated with anti-VCAM-·tTF and permeabilized by saponin. Annexin V was added at concentrations ranging from 0.1 to 10 μg/ml and cells were incubated for 30 min. before addition of diluted Proplex T. The amount of Factor Xa generated in the presence or absence of Annexin V was determined. Each treatment was performed in duplicate and repeated at least twice.

L540 Hodgkin tumors = test: Annexin V inhibition of coaguligand-induced thrombosis in vivo; parameters: species or system mouse
Procedure: The ability of Annexin V to inhibit coaguligand-induced thrombosis in vivo was examined in L540 Hodgkin-bearing SCID mice. Tumors were grown in mice and two mice per group (tumor size 0.5 cm in diameter) were injected intravenously via the tail vein with one of the following reagents: a) saline; b) 100 μg of Annexin V; c) 40 μg of anti-VCAM-1·tTF; d) 100 μg of Annexin V followed 2 hours later by 40 μg of anti-VCAM-1·tTF.
Four hours after the last injection mice were anesthetized and perfused with heparinized saline. Tumors were removed, fixed with 4% formalin, paraffin-embedded and stained with hematoxylene-eosin. The number of thrombosed and non-thrombosed blood vessels was counted and the percentage of thrombosis was calculated.

[2] = Reactivity with plastic-immobilized phospholipid; conditions: read-out: EC50 of binding
Procedure: Phospholipids were dissolved in n-hexane to a concentration of 50 μg/ml. 100 μl of this solution was added to wells of 96-well microtiter plates. After evaporation of the solvent in air, the plates were blocked for 2 h with 10% fetal bovine serum diluted in DPBS containing 2 mM Ca^2+ (binding buffer).
9D2 antibody or annexin V were diluted in the binding buffer in the presence of 10% serum at an initial concentration of 6.7 nM. Serial two-fold dilutions were prepared in the plates (100 μl per well). The plates were then incubated for 2 h at room temperature. The plates were washed and the 9D2 and annexin V were detected by goat anti-rat IgM conjugated to HRP and rabbit anti-human annexin V followed by goat anti-rabbit IgG conjugated to HRP (all diluted 1:1000), respectively. Secondary reagents were detected by using chromogenic substrate OPD followed by reading plates at 490 nm using a microplate reader (Molecular Devices, Palo Alto, Calif.).
The specificity of the 9D2 antibody binding was validated by using control rat IgM of irrelevant specificity (Pharmingen, San Diego, Calif.). The specificity of annexin V binding to phospholipids, which is Ca^2+-dependent, was determined by diluting the reagent in the DPBS containing 5 mM EDTA. Additional negative controls consisted of washing the plates with the binding buffer containing 0.2% of a detergent Tween 20. This treatment extracts lipids, thus removing the phospholipid that was absorbed to plastic. Neither 9D2 antibody nor annexin V bound to detergent-washed plates.

[3] = Competition of 9D2 and annexin V for binding to immobilized PS; conditions: competitor in 10-fold molar excess
Procedure: Biotinylated 9D2 antibody and annexin V were prepared by incubating purified proteins with a 10-fold molar excess of N-hydroxysuccinimide biotin (Sigma, MO) for 1 h at room temperature. Free biotin was removed by dialysis against PBS. […] For competition studies, […] biotinylated proteins were premixed with a 10-fold molar excess of unmodified proteins. The mixtures were then added to PS-coated plates. Bound reagents were detected by streptavidin-HRP conjugate diluted 1:1000. The binding to PS of each reagent in the absence of a competitor was taken as the 100% value.

bEnd.3 and ABAE cells = test: Binding to cultured endothelial cells and inhibition by liposomes; type: cell-based, mouse, bovine; conditions: quiescent conditions
Procedure: Endothelial cells were grown until they reached approximately 70% confluence. To induce PS exposure, cells were treated with H2O2 (200 μM) for 1 h at 37° C. Control and treated slides were washed with DPBS containing Ca^2+ and Mg^2+ and fixed with 0.25% of glutaraldehyde diluted in the same buffer. Excess aldehyde groups were quenched by incubation with 50 mM of NH4Cl for 5 min. To examine the effect of detergents and organic solvents on detection of phospholipids, some slides were pre-incubated with acetone (5 min) or with PBS containing 1% (v/v) Triton™ X-100.
Cells were washed with DPBS (containing Ca^2+, Mg^2+ and 0.2% (w/v) gelatin) and incubated with 1 μg/ml of biotinylated annexin V (Pharmingen, San Diego, Calif.) or with 1 μg/ml of 9D2 antibody. After 2 h of incubation, cells were washed with 0.2% gelatin buffer and were incubated with streptavidin-HRP (1:500 dilution). […] HRP activity was measured by adding O-phenylenediamine (0.5 mg/ml) and hydrogen peroxide (0.03% w/v) in citrate-phosphate buffer, pH 5.5. After 15 min, 100 μl of supernatant were transferred to 96 well plates, 100 μl of 0.18 M H2SO4 were added and the absorbance was measured at 490 nm. Alternatively, PS-positive cells were detected by addition of carbazole substrate, resulting in insoluble red-brownish precipitate. […]

With “Annexin V: High affinity PS binding ligand; natural ligand binding anionic phospholipids and PE” the “inhibition of factor Xa production” value [1] was 58%, the “coaguligand-induced intravascular thrombosis and changes in tumor cell morphology” value (L540 Hodgkin tumors; 100 μg Annexin V 2 hours before 40 μg coaguligand) was “completely abolished” and the tumor morphology (L540 Hodgkin tumors; 100 μg Annexin V alone) was “did not alter tumor morphology”. The EC50 ([2]; CL) was 0.13 nM, the EC50 ([2]; PA) was 0.1 nM and the EC50 ([2]; PC) was > 8 nM. For the same substance, the EC50 ([2]; PE) was 0.1 nM, the EC50 ([2]; PG) was 0.25 nM and the EC50 ([2]; PI) was 0.05 nM. The EC50 ([2]; PS) was 0.1 nM, the EC50 ([2]; SM) was > 8 nM and the “Binding (% Control) of Biotinylated 9D2 to PS” value [3] was 93%. For the same substance, the “Binding (% Control) of Biotinylated annexin V to PS” value [3] was 8% and the “binding to non-permeabilized monolayers” value (bEnd.3 and ABAE cells) was “Neither 9D2 nor annexin V bound”.
